The text below walks through data of PubChem BioAssay AID256 (DTP/NCI, 2004).

The structures appear in SMILES notation. “And” between values parts separate entries of the source, which are not always exact repeats. Identical values can stand only once. Toxic doses and inconclusive results are not listed.

This assay deals with CD2F1 mice, L1210 leukemia ip, survival T/C. As to the kind of experiment: NCI In Vivo Anticancer Drug Screen. Data for tumor model L1210 Leukemia (intraperitoneal) in CD2F1 (CDF1) mice. The note with it: endpoint: mean survival time, higher = longer survival. In short, it runs like this: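 Implant tumor; dose compound or vehicle; measure endpoint in both groups; report treated divided by control.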

Setting [1] is: dose: 100.0 mg/kg/injection, schedule: Q04DX003 (ip), vehicle: saline with Tween-80.
Setting [2] is: dose: 200.0 mg/kg/injection, schedule: Q04DX003 (ip), vehicle: saline with Tween-80.
[3] abbreviates: dose: 400.0 mg/kg/injection, schedule: Q04DX003 (ip), vehicle: saline with Tween-80.
[4] abbreviates: dose: 100.0 mg/kg/injection, schedule: Q01DX009 (ip), vehicle: saline with Tween-80.
Setting [5] is: dose: 400.0 mg/kg/injection, schedule: Q01DX009 (ip), vehicle: saline with Tween-80.
The mark [6] stands for this setting: dose: 100.0 mg/kg/injection, schedule: Q01DX009 (ip), vehicle: saline.
[7] abbreviates: dose: 25.0 mg/kg/injection, schedule: Q01DX009 (ip), vehicle: saline.
[8] abbreviates: dose: 50.0 mg/kg/injection, schedule: Q01DX009 (ip), vehicle: saline.
Where [9] appears, read: dose: 200.0 mg/kg/injection, schedule: Q01DX009 (ip), vehicle: saline with Tween-80.

With `CC[n+]1c(-c2ccccc2)c2cc(N)ccc2c2ccc(N)cc21`, the T/C is, setting by setting: (dose: 1.0 mg/kg/injection, schedule: Q01DX009 (ip), vehicle: water) 106 % of control; (dose: 2.0 mg/kg/injection, schedule: Q01DX009 (ip), vehicle: water) 112 % of control; (dose: 2.5 mg/kg/injection, schedule: Q01DX005 (ip), vehicle: water) 101 % of control; (dose: 4.0 mg/kg/injection, schedule: Q01DX009 (ip), vehicle: water) 116 % of control; (dose: 5.0 mg/kg/injection, schedule: Q01DX005 (ip), vehicle: water) 105 % of control; (dose: 8.0 mg/kg/injection, schedule: Q01DX009 (ip), vehicle: water) 122 % of control. The T/C by setting is: (dose: 10.0 mg/kg/injection, schedule: Q01DX005 (ip), vehicle: water) 114 % of control; (dose: 16.0 mg/kg/injection, schedule: Q01DX009 (ip), vehicle: water) 104 % of control.

Consider `O=C(/C=C/c1ccccc1)N1CCCCC1`, for which the T/C is 98 % of control under setting [1], 89 % of control under setting [2] and 94 % of control under setting [3].

On to `CSc1nccc2ccccc12`, for which the T/C was 106 % of control (dose: 12.5 mg/kg/injection, schedule: Q01DX009 (ip), vehicle: other); 106 % of control (dose: 25.0 mg/kg/injection, schedule: Q01DX009 (ip), vehicle: other); 106 % of control (dose: 50.0 mg/kg/injection, schedule: Q01DX009 (ip), vehicle: other); 106 % of control (dose: 100.0 mg/kg/injection, schedule: Q01DX009 (ip), vehicle: other).

Take `CN1NC=Nc2c(SCc3ccccc3)ncnc21`: the T/C (dose: 75.0 mg/kg/injection, schedule: Q01DX001 (ip), vehicle: other) was 98 % of control.

With `O=C(COc1ccc(Br)cc1C(=O)O)Nc1ccccc1`, the T/C was 96 % of control under setting [1], 97 % of control under setting [2] and 94 % of control under setting [3].

For the molecule `OC12Cc3ccccc3C1=NN(c1ccccc1)C2c1ccccc1` (stereo not drawn), the T/C is 91 % of control under setting [4] and 86 % of control under setting [5].

For `C[S+](C)CC(=O)O`, the T/C under setting [6] is 97 % of control; the T/C (dose: 200.0 mg/kg/injection, schedule: Q01DX009 (ip), vehicle: saline) is 101 % of control; the T/C (dose: 400.0 mg/kg/injection, schedule: Q01DX009 (ip), vehicle: saline) is 92 % of control.

Turning to `CS(=O)(=O)OCCN(CCOS(C)(=O)=O)c1ccc(N=O)cc1`, the T/C was 101 % of control (dose: 0.25 mg/kg/injection, schedule: Q01DX009 (ip), vehicle: saline); 113 % of control (dose: 0.5 mg/kg/injection, schedule: Q01DX001 (ip), vehicle: saline); 103 % of control (dose: 0.5 mg/kg/injection, schedule: Q01DX005 (ip), vehicle: saline); 91 % of control (dose: 0.5 mg/kg/injection, schedule: Q01DX009 (ip), vehicle: saline); 114 % of control (dose: 1.0 mg/kg/injection, schedule: Q01DX005 (ip), vehicle: saline); 97 % of control (dose: 1.0 mg/kg/injection, schedule: Q04DX003 (ip), vehicle: saline). Also, the T/C reads like this: (dose: 2.0 mg/kg/injection, schedule: Q01DX001 (ip), vehicle: saline) 114 % of control; (dose: 2.0 mg/kg/injection, schedule: Q04DX003 (ip), vehicle: saline) 97 % of control; (dose: 7.5 micrograms/kg/injection, schedule: Q03HX024 (ip), vehicle: saline) 234 % of control; (dose: 31.3 micrograms/kg/injection, schedule: Q03HX024 (ip), vehicle: saline) 115 % of control.

`CC(=O)Nc1ccc(S(=O)(=O)N=C(N)N)cc1`: the T/C runs as follows: (dose: 75.0 mg/kg/injection, schedule: Q04DX002 (ip), vehicle: saline) 114 % of control; (dose: 150.0 mg/kg/injection, schedule: Q04DX002 (ip), vehicle: saline) 100 % of control; (dose: 300.0 mg/kg/injection, schedule: Q04DX002 (ip), vehicle: saline) 91 % of control.

For the molecule `CN=Cc1ccccc1`, the T/C under setting [7] was 97 % of control, the T/C under setting [8] is 97 % of control and the T/C under setting [6] was 100 % of control.

For `CN(C)S(=O)(=O)c1ccccc1C(O)(c1ccccc1)c1ccccc1`, the T/C is, setting by setting: under setting [4], 103 % of control; under setting [1], 104 % of control; under setting [9], 94 % of control; under setting [2], 101 % of control; under setting [5], 101 % of control; under setting [3], 98 % of control.

As for `NCCOS(=O)(=O)O`, the T/C runs as follows: under setting [7], 102 % of control; under setting [8], 98 % of control; under setting [6], 96 % of control.

On to `NCCSc1ccccc1`, for which the T/C is 89 % of control (dose: 12.5 mg/kg/injection, schedule: Q01DX009 (ip), vehicle: saline with Tween-80); 89 % of control (dose: 25.0 mg/kg/injection, schedule: Q01DX009 (ip), vehicle: saline with Tween-80); 90 % of control and 108 % of control (dose: 50.0 mg/kg/injection, schedule: Q01DX009 (ip), vehicle: saline with Tween-80); 87 % of control and 98 % of control under setting [4].

Take `O=[N+]([O-])c1ccc(/C=C/c2ccccc2)cc1`: the T/C is, setting by setting: under setting [4], 104 % of control; under setting [1], 102 % of control; under setting [9], 100 % of control; under setting [2], 104 % of control; under setting [5], 98 % of control; under setting [3], 96 % of control.

As for `COC1C(O)=C2C(=O)OC(C)(O)/C=C/C=C\C=C/C=C/C(c3ccccc3)NC(=O)/C=C/C=C/C=C/C=C/C2(C)C1O` (stereo not drawn), the T/C was 106 % of control (dose: 6.25 mg/kg/injection, schedule: Q01DX009 (ip), vehicle: Klucel (hydroxypropylcellulose) (HPC)); 95 % of control (dose: 12.5 mg/kg/injection, schedule: Q01DX009 (ip), vehicle: Klucel (hydroxypropylcellulose) (HPC)); 103 % of control (dose: 25.0 mg/kg/injection, schedule: Q01DX009 (ip), vehicle: Klucel (hydroxypropylcellulose) (HPC)).

As to `CC(C)C(O)(C(=O)O)C(C)O` (stereo not drawn), the T/C was 96 % of control (dose: 12.5 mg/kg/injection, schedule: Q01DX009 (ip), vehicle: water); 94 % of control (dose: 25.0 mg/kg/injection, schedule: Q01DX009 (ip), vehicle: water); 88 % of control (dose: 50.0 mg/kg/injection, schedule: Q01DX009 (ip), vehicle: water); 89 % of control (dose: 100.0 mg/kg/injection, schedule: Q01DX009 (ip), vehicle: water).

As for `CN1CCN(C(=O)NCCCl)CC1`, the T/C (dose: 5.0 mg/kg/injection, schedule: Q01DX009 (ip), vehicle: saline) was 107 % of control; the T/C (dose: 5.0 mg/kg/injection, schedule: Q04DX003 (ip), vehicle: saline) was 93 % of control; the T/C (dose: 10.0 mg/kg/injection, schedule: Q01DX009 (ip), vehicle: saline) is 94 % of control; the T/C (dose: 10.0 mg/kg/injection, schedule: Q04DX003 (ip), vehicle: saline) is 92 % of control; the T/C (dose: 20.0 mg/kg/injection, schedule: Q04DX003 (ip), vehicle: saline) is 92 % of control.

With `COC(=O)C#CC(N)=O`, the T/C reads like this: (dose: 1.25 mg/kg/injection, schedule: Q01DX009 (ip), vehicle: saline sonified) 106 % of control; (dose: 2.5 mg/kg/injection, schedule: Q01DX009 (ip), vehicle: saline sonified) 109 % of control; (dose: 5.0 mg/kg/injection, schedule: Q01DX009 (ip), vehicle: saline sonified) 113 % of control; (dose: 5.0 mg/kg/injection, schedule: Q04DX003 (ip), vehicle: saline sonified) 110 % of control.

Take `CC(C)(CCC#N)C(O)c1ccccc1` (stereo not drawn): the T/C reads like this: (dose: 100.0 mg/kg/injection, schedule: Q04DX002 (ip), vehicle: other) 98 % of control; (dose: 200.0 mg/kg/injection, schedule: Q04DX002 (ip), vehicle: other) 102 % of control; (dose: 400.0 mg/kg/injection, schedule: Q04DX002 (ip), vehicle: other) 105 % of control.
